In this data set the test system is CCRIS mutagenicity, Ames/micronucleus/aberration tests. Description: CCRIS mutagenicity studies.
[1] abbreviates: Test System: AMES SALMONELLA TYPHIMURIUM, Strain/Indicator: TA100, Metabolic Activation: RAT LIVER S-9, PHENOBARBITAL AND BETA-NAPHTHOFLAVONE, Method: PREINCUBATION
[2] abbreviates: Test System: AMES SALMONELLA TYPHIMURIUM, Strain/Indicator: TA1535, Metabolic Activation: RAT LIVER S-9, PHENOBARBITAL AND BETA-NAPHTHOFLAVONE, Method: PREINCUBATION
Setting [3] is: Test System: AMES SALMONELLA TYPHIMURIUM, Strain/Indicator: TA1537, Metabolic Activation: NONE, Method: PREINCUBATION
Setting [4] is: Test System: AMES SALMONELLA TYPHIMURIUM, Strain/Indicator: TA1537, Metabolic Activation: RAT LIVER S-9, PHENOBARBITAL AND BETA-NAPHTHOFLAVONE, Method: PREINCUBATION

Calls of active or inactive are those of the source. The rule behind the calls is not given here.

In the case of `O=CC=O`, the mutagenic call is, setting by setting: (End Point: IN VITRO CHROMOSOMAL ABERRATIONS, Test System: CHL CELLS, Metabolic Activation: NONE) “active; positive (structural and ploidy changes)”; (End Point: IN VITRO CHROMOSOMAL ABERRATIONS, Test System: CHL CELLS, Metabolic Activation: RAT, LIVER, S-9, SODIUM PHENOBARBITAL AND 5,6-BENZOFLAVONE) “active; positive (structural and ploidy changes)”; (Test System: AMES SALMONELLA TYPHIMURIUM, Strain/Indicator: TA97, Metabolic Activation: NONE, Method: PREINCUBATION) “inactive; negative”; (Test System: AMES SALMONELLA TYPHIMURIUM, Strain/Indicator: TA98, Metabolic Activation: RAT, LIVER, S-9, AROCLOR 1254, Method: PREINCUBATION) “active; positive”; (Test System: AMES SALMONELLA TYPHIMURIUM, Strain/Indicator: TA100, Metabolic Activation: NONE) “active; positive”; (Test System: AMES SALMONELLA TYPHIMURIUM, Strain/Indicator: TA100, Metabolic Activation: NONE, Method: STANDARD PLATE) “active; positive”. The mutagenic call was “active; positive” under setting [1]; “active; positive” (Test System: AMES SALMONELLA TYPHIMURIUM, Strain/Indicator: TA100, Metabolic Activation: RAT, LIVER, S-9, AROCLOR 1254, Method: PREINCUBATION); “active; positive” (Test System: AMES SALMONELLA TYPHIMURIUM, Strain/Indicator: TA100, Metabolic Activation: RAT, LIVER, S-9, PHENOBARBITAL AND 5,6-BENZOFLAVONE, Method: PREINCUBATION); “active; positive” (Test System: AMES SALMONELLA TYPHIMURIUM, Strain/Indicator: TA100, Metabolic Activation: S-9); “active; positive” (Test System: AMES SALMONELLA TYPHIMURIUM, Strain/Indicator: TA102, Metabolic Activation: RAT, LIVER, S-9, AROCLOR 1254, Method: PREINCUBATION); “active; positive” (Test System: AMES SALMONELLA TYPHIMURIUM, Strain/Indicator: TA102, Metabolic Activation: RAT, LIVER, S-9, AROCLOR 1254, Method: STANDARD PLATE). Moreover, the mutagenic call by setting is: (Test System: AMES SALMONELLA TYPHIMURIUM, Strain/Indicator: TA102, Metabolic Activation: RAT, LIVER, S-9, PHENOBARBITAL AND 5,6-BENZOFLAVONE, Method: PREINCUBATION) “active; positive”; (Test System: AMES SALMONELLA TYPHIMURIUM, Strain/Indicator: TA104, Metabolic Activation: NONE, Method: PREINCUBATION) “active; positive”; (Test System: AMES SALMONELLA TYPHIMURIUM, Strain/Indicator: TA104, Metabolic Activation: RAT, LIVER, S-9, PHENOBARBITAL AND 5,6-BENZOFLAVONE, Method: PREINCUBATION) “active; positive”; under setting [2], “active; positive”; under setting [3], “active; positive”; under setting [4], “inactive; negative”. The mutagenic call reads like this: (Test System: AMES SALMONELLA TYPHIMURIUM, Strain/Indicator: TA2638A, Metabolic Activation: RAT LIVER S-9, AROCLOR 1254, Method: STANDARD PLATE) “active; positive”; (Test System: AMES SALMONELLA TYPHIMURIUM, Strain/Indicator: TA7001, Metabolic Activation: NONE, Method: PREINCUBATION) “inactive; negative”; (Test System: AMES SALMONELLA TYPHIMURIUM, Strain/Indicator: TA7002, Metabolic Activation: NONE, Method: PREINCUBATION) “inactive; negative”; (Test System: AMES SALMONELLA TYPHIMURIUM, Strain/Indicator: TA7003, Metabolic Activation: NONE, Method: PREINCUBATION) “inactive; negative”; (Test System: AMES SALMONELLA TYPHIMURIUM, Strain/Indicator: TA7004, Metabolic Activation: NONE, Method: PREINCUBATION) “active; positive”; (Test System: AMES SALMONELLA TYPHIMURIUM, Strain/Indicator: TA7005, Metabolic Activation: NONE, Method: PREINCUBATION) “active; positive”. The mutagenic call is, setting by setting: (Test System: AMES SALMONELLA TYPHIMURIUM, Strain/Indicator: TA7006, Metabolic Activation: NONE, Method: PREINCUBATION) “active; positive”; (Test System: E. COLI, Strain/Indicator: W3110, Metabolic Activation: NONE, Method: PREINCUBATION) “active; positive”; (Test System: E. COLI, Strain/Indicator: WP2UVRA, Metabolic Activation: NONE, Method: PREINCUBATION) “active; positive”; (Test System: E. COLI, Strain/Indicator: WP2UVRA, Metabolic Activation: RAT LIVER S-9, PHENOBARBITAL AND BETA-NAPHTHOFLAVONE, Method: PREINCUBATION) “active; positive”; (Test System: MOUSE LYMPHOMA, Strain/Indicator: L5178Y (TK+/TK-), Metabolic Activation: NONE, Method: SUSPENSION/PLATE) “active; positive”.

With `CC(NC(=O)COc1ccc(Cl)cc1Cl)C(=O)O` (stereo unspecified), the mutagenic call is, setting by setting: (Test System: AMES SALMONELLA TYPHIMURIUM, Strain/Indicator: TA97, Metabolic Activation: RAT, LIVER, S-9, AROCLOR 1254, Method: STANDARD PLATE) “inactive; negative”; (Test System: AMES SALMONELLA TYPHIMURIUM, Strain/Indicator: TA97, Metabolic Activation: WOODCHUCK, LIVER, S-9, 3-METHYLCHOLANTHRENE, Method: STANDARD PLATE) “inactive; negative”; (Test System: AMES SALMONELLA TYPHIMURIUM, Strain/Indicator: TA98, Metabolic Activation: RAT, LIVER, S-9, AROCLOR 1254, Method: STANDARD PLATE) “inactive; negative”; (Test System: AMES SALMONELLA TYPHIMURIUM, Strain/Indicator: TA98, Metabolic Activation: WOODCHUCK, LIVER, S-9, 3-METHYLCHOLANTHRENE, Method: STANDARD PLATE) “inactive; negative”; (Test System: AMES SALMONELLA TYPHIMURIUM, Strain/Indicator: TA100, Metabolic Activation: RAT, LIVER, S-9, AROCLOR 1254, Method: STANDARD PLATE) “inactive; negative”; (Test System: AMES SALMONELLA TYPHIMURIUM, Strain/Indicator: TA100, Metabolic Activation: WOODCHUCK, LIVER, S-9, 3-METHYLCHOLANTHRENE, Method: STANDARD PLATE) “inactive; negative”. The mutagenic call (Test System: AMES SALMONELLA TYPHIMURIUM, Strain/Indicator: TA1535, Metabolic Activation: RAT, LIVER, S-9, AROCLOR 1254, Method: STANDARD PLATE) was “inactive; negative”; the mutagenic call (Test System: AMES SALMONELLA TYPHIMURIUM, Strain/Indicator: TA1535, Metabolic Activation: WOODCHUCK, LIVER, S-9, 3-METHYLCHOLANTHRENE, Method: STANDARD PLATE) is “inactive; negative”; the mutagenic call (Test System: AMES SALMONELLA TYPHIMURIUM, Strain/Indicator: TA1538, Metabolic Activation: RAT, LIVER, S-9, AROCLOR 1254, Method: STANDARD PLATE) is “inactive; negative”; the mutagenic call (Test System: AMES SALMONELLA TYPHIMURIUM, Strain/Indicator: TA1538, Metabolic Activation: WOODCHUCK, LIVER, S-9, 3-METHYLCHOLANTHRENE, Method: STANDARD PLATE) was “inactive; negative”.

Regarding `CCCCN(N=O)C(=O)N(C)C`, the mutagenic call (Test System: E. COLI, Strain/Indicator: WP2 UVRA, Metabolic Activation: NONE, Method: PREINCUBATION) is “active; positive” and the mutagenic call (Test System: E. COLI, Strain/Indicator: WP2 UVRA, Metabolic Activation: RAT, LIVER, S-9, PHENOBARBITAL AND 5,6-BENZOFLAVONE, Method: PREINCUBATION) was “active; positive”.

`COC(=O)CC(=O)OC`: the mutagenic call by setting is: (Test System: AMES SALMONELLA TYPHIMURIUM, Strain/Indicator: TA98, Metabolic Activation: NONE, Method: PREINCUBATION) “inactive; negative”; (Test System: AMES SALMONELLA TYPHIMURIUM, Strain/Indicator: TA98, Metabolic Activation: RAT LIVER S-9, PHENOBARBITAL AND BETA-NAPHTHOFLAVONE, Method: PREINCUBATION) “inactive; negative”; (Test System: AMES SALMONELLA TYPHIMURIUM, Strain/Indicator: TA100, Metabolic Activation: NONE, Method: PREINCUBATION) “inactive; negative”; under setting [1], “inactive; negative”; (Test System: AMES SALMONELLA TYPHIMURIUM, Strain/Indicator: TA1535, Metabolic Activation: NONE, Method: PREINCUBATION) “inactive; negative”; under setting [2], “inactive; negative”. For the same compound, the mutagenic call was “inactive; negative” under setting [3]; “inactive; negative” under setting [4]; “inactive; negative” (Test System: E.COLI, Strain/Indicator: WP2UVRA/PKM101, Metabolic Activation: NONE, Method: PREINCUBATION); “inactive; negative” (Test System: E.COLI, Strain/Indicator: WP2UVRA/PKM101, Metabolic Activation: RAT LIVER S-9, PHENOBARBITAL AND BETA-NAPHTHOFLAVONE, Method: PREINCUBATION).
